The numbers were not newly measured in patent publication US20080004440A1, “SCAR TREATMENT USING PROTEIN PHOSPHATASE INHIBITORS” (priority 2006, published 2008), which cites them from elsewhere.

One may read the IC50 as the concentration that inhibits the measured activity by half. As usually defined, the Ki is the dissociation constant of the complex between target and ligand, obtained from inhibition or displacement.

One data set deals with PP2A. The conditions noted are these: cited from earlier work.
The next data set deals with PP2A, PP1, PP2B. The conditions noted are these: cited from earlier work.
For data set [1] the following is noted: cited from earlier work.
A further data set concerns PP1. The conditions noted are these: cited from earlier work.
The next data set concerns PP2B. To be noted: cited from earlier work.

Structures can show the parent of a compound that is named as a salt. Where two headings read alike, the source gives them in different places. *1 amine or outer side, *2 acyl side, *3 side chain or, on linkers, in order; H or OH if unused. Where a SMILES comes first, the peptide text is derived from it. Bridges are numbered along the chain shown (N, C = ends). [ ]: non-standard residue; d: D form. Adda = CO[C@@H](Cc1ccccc1)[C@@H](C)/C=C(C)/C=C/[C@H](N[*:1])[C@H](C)C(=O)[*:2]; dAsp(3S-Me) = C[C@H](C(=O)[*:3])[C@@H](N[*:1])C(=O)[*:2]; d(γGlu) = O=C(O)[C@@H](CCC(=O)[*:2])N[*:1]; NMeDha = C=C(NC)C(=O)O

Regarding Microcystin-RR, the IC50 with PP2A was 1.4 nM. Besides, in the data set on PP2A, PP1, PP2B, the “Order of inhibition / selectivity among protein phosphatases” value was “Cyclic peptide. PP2A ˜ PP1 >> PP2B (IC50 = 1.4 nM”.

As for Microcystin-LW, the Cell permeability entry in data set [1] is listed as “A more cell-permeable analog of Microcystin-LR”.

As to `C[C@@](O)(/C=C/[C@H]1CC=CC(=O)O1)[C@@H](C[C@@H](O)\C=C/C=C\C=C\CO)OP(=O)(O)O` [Fostriecin], the IC50 in the data set on PP2A is 3.2 nM; in the data set with PP1 (inhibits PP1 only at higher concentrations) it was 131000 nM.

Take `O=C(O)[C@@H]1[C@H](C(=O)O)[C@H]2CC[C@@H]1O2` [Endothall]: the IC50 with PP2A was 90 nM. For the same compound, the “Order of inhibition / selectivity among protein phosphatases” value in the data set with PP2A, PP1, PP2B (in words) is “specific inhibitor of PP2A”.

In the case of `COC[C@@H]([C@H](O)[C@H](O)C(=O)NCC[C@H](C)c1nc(/C=C/C[C@@H]2O[C@]3(C[C@@H](O)[C@@H]2C)O[C@H]([C@H](C[C@H](O)[C@H](C)[C@H](O)[C@H](C)/C=C(C)/C(C)=C/C=C/C(C)=C\C#N)OC)[C@H](OP(=O)(O)O)C3(C)C)co1)N(C)C` [Calyculin A], the IC50 was 0.5 to 1 nM in the data set on PP2A and 2 nM in the data set on PP1. Also, in the data set on PP2A, PP1, PP2B, the “Order of inhibition / selectivity among protein phosphatases” value was “Cell-permeable. Phosphorylated polyketide. PP2A ˜ PP1 >> PP2B”. In data set [1] (in words), the Cell permeability result is “Cell-permeable. Phosphorylated polyketide. PP2A ˜ PP1 >> PP2B”.

For `O=P(O)(O)Oc1cccc2ccccc12` [α-Naphthyl acid Phosphate], in the data set with PP2A, PP1, PP2B (in words), the “Order of inhibition / selectivity among protein phosphatases” value is given as “Broad-spectrum protein phosphatase inhibitor”.

For the compound “Protein phosphatase 2A inhibitor I1^PP2A: Protein phosphatase 2A inhibitor; potently inhibits all forms of PP2A”, the Ki at PP2A (all forms of PP2A) is about 0.1 nM.

For the compound `C=C1[C@@H](O)[C@@H]2O[C@]3(CC[C@H](/C=C/[C@@H](C)[C@@H]4CC(C)=C[C@@]5(O[C@H](C[C@@](C)(O)C(=O)O)CC[C@H]5O)O4)O3)CC[C@H]2O[C@@H]1[C@@H](O)C[C@H](C)[C@H]1O[C@@]2(CCCCO2)CC[C@H]1C` [Okadaic acid, ammonium salt], the half-maximal inhibitory concentration (IC50) in the data set with PP2A was 0.1 nM; with PP2B, 5000 nM; in the data set with PP1, 10 to 15 nM.

`C=C1C(=O)N[C@H](C)C(=O)N[C@@H](CC(C)C)C(=O)N[C@@H](C(=O)O)[C@H](C)C(=O)N[C@@H](CCCNC(=N)N)C(=O)N[C@@H](/C=C/C(C)=C/[C@H](C)[C@H](Cc2ccccc2)OC)[C@H](C)C(=O)N[C@@H](C(=O)O)CCC(=O)N1C` [Microcystin-LR] (R[Adda][d(γGlu)][NMeDha][dA]L[dAsp(3S-Me)]-OH; lactam N-7): the IC50 in the data set on PP2A is 0.04 nM; in the data set on PP1, 1.7 nM. For the same compound, the “Order of inhibition / selectivity among protein phosphatases” value with PP2A, PP1, PP2B is “Cyclic peptide. PP2A ˜ PP1 >> PP2B (IC50 for PP2A = 40 pM”.
